Results: the NIST ThermoML archive (doi:10.1016/j.jct.2019.06.029)

Experiment: wn = mass fraction of the nth substance listed
Conditions: 100 kPa, Liquid; for viscosity: Falling or rolling sphere viscometry; for speed of sound: Frequency=3 MHz, Single path-length method; for mass density: Vibrating tube method

CCCC[n+]1ccc(C)cc1.[Br-] [1-butyl-4-methylpyridinium bromide] + O
Conditions | mass density, w1 = 0.01 [kg/m3] | mass density, w1 = 0.015 [kg/m3] | mass density, w1 = 0.02 [kg/m3] | speed of sound, w1 = 0.01 [m/s] | speed of sound, w1 = 0.015 [m/s] | speed of sound, w1 = 0.02 [m/s] | viscosity, w1 = 0.01 [mPa·s] | viscosity, w1 = 0.015 [mPa·s] | viscosity, w1 = 0.02 [mPa·s]
288.15 K | 1001.16 | 1002.26 | 1003.42 | 1472.7 | 1475.5 | 1478 | 1.165 | 1.176 | 1.195
293.15 K | 1000.23 | 1001.31 | 1002.47 | 1488.2 | 1490.8 | 1493.3 | 1.024 | 1.037 | 1.044
298.15 K | 999.051 | 1000.13 | 1001.26 | 1501.9 | 1504.1 | 1506.5 | 0.907 | 0.919 | 0.926
303.15 K | 997.647 | 998.68 | 999.765 | 1513.7 | 1515.7 | 1517 | 0.813 | 0.824 | 0.833
308.15 K | 996.019 | 996.958 | 998.102 | 1523.9 | 1525.8 | 1527.7 | 0.734 | 0.745 | 0.75

CCCCCC[n+]1ccc(C)cc1.[Br-] [1-hexyl-4-methylpyridinium bromide] + O
Conditions | mass density, w1 = 0.01 [kg/m3] | mass density, w1 = 0.015 [kg/m3] | mass density, w1 = 0.02 [kg/m3] | speed of sound, w1 = 0.01 [m/s] | speed of sound, w1 = 0.015 [m/s] | speed of sound, w1 = 0.02 [m/s] | viscosity, w1 = 0.01 [mPa·s] | viscosity, w1 = 0.015 [mPa·s] | viscosity, w1 = 0.02 [mPa·s]
288.15 K | 1000.9 | 1001.79 | 1002.56 | 1473.1 | 1476.5 | 1479.6 | 1.172 | 1.183 | 1.195
293.15 K | 999.956 | 1000.82 | 1001.8 | 1488.7 | 1491.6 | 1493.8 | 1.028 | 1.039 | 1.05
298.15 K | 998.796 | 999.636 | 1000.38 | 1502.2 | 1504.9 | 1507.5 | 0.913 | 0.924 | 0.934
303.15 K | 997.389 | 998.196 | 998.926 | 1514 | 1516.4 | 1518.9 | 0.817 | 0.824 | 0.834
308.15 K | 995.718 | 996.546 | 997.238 | 1524 | 1526.2 | 1528.6 | 0.738 | 0.746 | 0.753

CCCCCCCC[n+]1ccc(C)cc1.[Br-] [1-octyl-4-methylpyridinium bromide] + O
Conditions | mass density, w1 = 0.01 [kg/m3] | mass density, w1 = 0.015 [kg/m3] | mass density, w1 = 0.02 [kg/m3] | speed of sound, w1 = 0.01 [m/s] | speed of sound, w1 = 0.015 [m/s] | speed of sound, w1 = 0.02 [m/s] | viscosity, w1 = 0.01 [mPa·s] | viscosity, w1 = 0.015 [mPa·s] | viscosity, w1 = 0.02 [mPa·s]
288.15 K | 1000.54 | 1001.29 | 1002.09 | 1473.8 | 1477 | 1480.5 | 1.179 | 1.196 | 1.217
293.15 K | 999.566 | 1000.32 | 1001.1 | 1489.1 | 1492.2 | 1495.3 | 1.031 | 1.046 | 1.063
298.15 K | 998.379 | 999.123 | 999.874 | 1502.6 | 1505.3 | 1508.2 | 0.915 | 0.929 | 0.941
303.15 K | 996.945 | 997.706 | 998.407 | 1514.5 | 1516.7 | 1519.5 | 0.817 | 0.833 | 0.844
308.15 K | 995.3 | 996.048 | 996.742 | 1524.5 | 1526.4 | 1528.8 | 0.737 | 0.749 | 0.76

O [water] + CCCCCCCC[n+]1ccc(C)cc1.[Br-]
w2 = 0
Conditions | viscosity [mPa·s]
288.15 K | 1.136
293.15 K | 1.001
298.15 K | 0.89
303.15 K | 0.797
308.15 K | 0.718

O [water] + CCCCCC[n+]1ccc(C)cc1.[Br-]
w2 = 0
Conditions | viscosity [mPa·s]
288.15 K | 1.136
293.15 K | 1.001
298.15 K | 0.89
303.15 K | 0.797
308.15 K | 0.718

O [water] + CCCC[n+]1ccc(C)cc1.[Br-]
w2 = 0
Conditions | viscosity [mPa·s]
288.15 K | 1.136
293.15 K | 1.001
298.15 K | 0.89
303.15 K | 0.797
308.15 K | 0.718
